According to US20240158446A1, “CYCLIC COMPOUND HAVING SELECTIVE INHIBITORY ACTION ON KRAS OVER HRAS AND NRAS” (CHUGAI SEIYAKU KABUSHIKI KAISHA, priority 2021, published 2024):
Where two headings read alike, the source gives them in different places.

Columns and labels:
[1] = system: human lung cancer strain NCI-H441;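 further: cell proliferation inhibition after four days measured by CellTiter-Glo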
[2] = molecular target: GDP-bound NRAS wild-type protein (Homo sapiens, UniProt P01111); assay: Binding to NRAS by surface plasmon resonance (SPR), Single Cycle Kinetics; settings: for NRAS/KRAS (ratio of KD value for NRAS to KD value for KRAS): GDP-bound NRAS wild-type protein vs GDP-bound KRAS wild-type protein; for NRAS/KRAS (ratio of KD value with respect to GDP-bound NRAS wild-type protein to KD value with respect to KRAS): SPR KD ratio NRAS/KRAS, class symbols
[3] = molecular target: GDP-bound HRAS wild-type protein (Homo sapiens, UniProt P01112); assay: Binding to HRAS by surface plasmon resonance (SPR), Single Cycle Kinetics; settings: for HRAS/KRAS (ratio of KD value for HRAS to KD value for KRAS): GDP-bound HRAS wild-type protein vs GDP-bound KRAS wild-type protein; for HRAS/KRAS (ratio of KD value with respect to GDP-bound HRAS wild-type protein to KD value with respect to KRAS): SPR KD ratio HRAS/KRAS, class symbols
[4] = molecular target: GDP-bound KRAS wild-type protein (Homo sapiens, UniProt P01116); assay: Binding to KRAS by surface plasmon resonance (SPR), Single Cycle Kinetics
[5] = SPR, Single Cycle Kinetics, 1:1 binding model, GDP-bound KRAS wild-type protein, read-out: KRAS KD
[6] = SPR Single Cycle Kinetics, GDP-bound KRAS wild-type protein, 1:1 binding model, read-out: KRAS KD
[7] = SPR, Single Cycle Kinetics, GDP-bound KRAS wild-type protein, read-out: KRAS KD

Sequence of GDP-bound NRAS wild-type protein (P01111 whole entry): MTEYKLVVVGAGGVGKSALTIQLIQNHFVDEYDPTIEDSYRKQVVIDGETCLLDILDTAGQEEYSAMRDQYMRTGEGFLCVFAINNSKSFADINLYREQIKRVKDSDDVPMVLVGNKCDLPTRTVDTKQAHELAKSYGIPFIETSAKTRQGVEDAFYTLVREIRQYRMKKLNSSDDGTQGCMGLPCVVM
Sequence of GDP-bound KRAS wild-type protein (P01116 whole entry): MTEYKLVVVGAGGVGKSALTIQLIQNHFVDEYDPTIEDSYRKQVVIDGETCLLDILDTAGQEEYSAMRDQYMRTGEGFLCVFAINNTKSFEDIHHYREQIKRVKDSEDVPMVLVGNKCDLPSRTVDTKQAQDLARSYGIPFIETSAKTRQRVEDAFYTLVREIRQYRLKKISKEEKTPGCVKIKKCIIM
Sequence of GDP-bound HRAS wild-type protein (P01112 whole entry): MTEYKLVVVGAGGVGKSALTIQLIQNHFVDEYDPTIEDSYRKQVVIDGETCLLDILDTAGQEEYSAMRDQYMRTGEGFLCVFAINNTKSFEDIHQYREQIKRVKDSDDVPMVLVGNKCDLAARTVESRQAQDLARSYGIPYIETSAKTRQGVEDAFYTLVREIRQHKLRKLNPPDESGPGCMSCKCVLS

| IC50 [1] [nM] | Kd [4, 5] [nM] | Compound | NRAS/KRAS (ratio of KD value for NRAS to KD value for KRAS) ([2]; SPR, KD ratio class) | HRAS/KRAS (ratio of KD value for HRAS to KD value for KRAS) ([3]; SPR, KD ratio class) | further results |
| --- | --- | --- | --- | --- | --- |
| 81.6 |  | CCC(CC)[C@H]1C(=O)N(C)[C@H](C(=O)N(C)C)CC(=O)N(C)[C@@H](COC)C(=O)N[C@@H]([C@@H](C)CC)C(=O)N2CCC[C@H]2C(=O)N(C)[C@H]2C/C=C\CCN(C2=O)[C@@H](Cc2ccc(C(F)(F)F)cc2)C(=O)N(C)CC(=O)N[C@@H](CCc2ccc(Cl)c(Cl)c2)C(=O)N2C[C@H](OC(C)C)C[C@H]2C(=O)NC2(CC(C)(C)C2)C(=O)N1C [PP2639] |  |  | NRAS/KRAS (ratio of KD value with respect to GDP-bound NRAS wild-type protein to KD value with respect to KRAS) [2]: AA (a compound having 20 or more is denoted as AA); HRAS/KRAS (ratio of KD value with respect to GDP-bound HRAS wild-type protein to KD value with respect to KRAS) [3]: A (a compound having 10 or more and less than 20 is denoted as A); Kd [4, 6]: 1.1 nM |
| 16.3 |  | CCC[C@H]1C(=O)N[C@@H]([C@@H](C)CC)C(=O)N(C)CC(=O)N(C)[C@H]2C/C=C\CCN(C2=O)[C@@H](Cc2ccc(C(F)F)cc2)C(=O)N(C)CC(=O)N[C@@H](CCc2ccc(Cl)c(Cl)c2)C(=O)N2C[C@H](OCC)C[C@H]2C(=O)NC2(CC(C)(C)C2)C(=O)N(C)[C@@H](C(CC)CC)C(=O)N(C)[C@H](C(=O)N(C)C)CC(=O)N1C [PP2531] |  |  | NRAS/KRAS (ratio of KD value with respect to GDP-bound NRAS wild-type protein to KD value with respect to KRAS) [2]: AA (a compound having 20 or more is denoted as AA); HRAS/KRAS (ratio of KD value with respect to GDP-bound HRAS wild-type protein to KD value with respect to KRAS) [3]: A (a compound having 10 or more and less than 20 is denoted as A); Kd [4, 6]: 0.51 nM |
| 8.3 |  | CCOC[C@H]1C(=O)N[C@@H]([C@@H](C)CC)C(=O)N(C)CC(=O)N(C)[C@H]2C/C=C\CCN(C2=O)[C@@H](Cc2ccc(C)cc2)C(=O)N(C)CC(=O)N[C@@H](CCc2ccc(C(F)(F)F)c(Cl)c2)C(=O)N2C[C@@H](C)C[C@H]2C(=O)NC2(CC(C)(C)C2)C(=O)N(C)[C@@H](C2CCCC2)C(=O)N(C)[C@H](C(=O)N(C)C)CC(=O)N1C [PP2394] |  |  | NRAS/KRAS (ratio of KD value for NRAS to KD value for KRAS) ([2]; SPR): A (a compound having 10 or more and less than 20 is denoted as A); HRAS/KRAS (ratio of KD value for HRAS to KD value for KRAS) ([3]; SPR): B (a compound having 3 or more and less than 10 is denoted as B); Kd [4, 7]: 0.12 nM |
| 96.4 |  | CCC[C@H]1C(=O)N[C@@H]([C@@H](C)CC)C(=O)N(C2CC2)CC(=O)N(C)[C@H]2C/C=C\CCN(C2=O)[C@@H](Cc2ccc(C)cc2)C(=O)N(C)CC(=O)N[C@@H](CCc2ccc(Cl)c(Cl)c2)C(=O)N2C[C@H](OCC)C[C@H]2C(=O)NC2(CC(C)(C)C2)C(=O)N(C)[C@@H](C(CC)CC)C(=O)N(C)[C@H](C(=O)N(C)C)CC(=O)N1C [PP2561] |  |  | NRAS/KRAS (ratio of KD value with respect to GDP-bound NRAS wild-type protein to KD value with respect to KRAS) [2]: AA (a compound having 20 or more is denoted as AA); HRAS/KRAS (ratio of KD value with respect to GDP-bound HRAS wild-type protein to KD value with respect to KRAS) [3]: A (a compound having 10 or more and less than 20 is denoted as A); Kd [4, 6]: 1.9 nM |
| 48.2 | 0.25 | CC[C@H](C)[C@@H]1NC(=O)[C@H](CC)N(C)C(=O)C[C@@H](C(=O)N(C)C)N(C)C(=O)[C@H](C2CCCC2)N(C)C(=O)C2(CCC2)NC(=O)[C@@H]2C[C@H](C)CN2C(=O)[C@H](CCc2cc(F)c(C(F)(F)F)c(F)c2)NC(=O)CN(C)C(=O)[C@H](CC2CCCCC2)N2CC/C=C\C[C@@H](C2=O)N(C)C(=O)CN(C)C1=O [PP1471] | A (a compound having 10 or more and less than 20 is denoted as A) | A (a compound having 10 or more and less than 20 is denoted as A) |  |

More lines, now with the values behind:

| Compound | IC50 [1] [nM] | Kd [4, 5] [nM] | NRAS/KRAS (ratio of KD value for NRAS to KD value for KRAS) ([2]; SPR, KD ratio class) | HRAS/KRAS (ratio of KD value for HRAS to KD value for KRAS) ([3]; SPR, KD ratio class) | further results |
| --- | --- | --- | --- | --- | --- |
| CCC[C@H]1C(=O)N[C@@H]([C@@H](C)CC)C(=O)N(C)CC(=O)N(C)[C@H]2C/C=C\CCN(C2=O)[C@@H](Cc2ccc(C(F)(F)F)cc2)C(=O)N(C)CC(=O)N[C@@H](CCc2cc(F)c(Cl)c(F)c2)C(=O)N2C[C@H](OCC)C[C@H]2C(=O)NC2(CCC2)C(=O)N(C)[C@@H](C(CC)CC)C(=O)N(C)[C@H](C(=O)N(C)C)CC(=O)N1C [PP1231] | 23.1 | 0.56 | AA (a compound having 20 or more is denoted as AA) | A (a compound having 10 or more and less than 20 is denoted as A) |  |
| C=CC[C@H]1C(=O)N[C@@H]([C@@H](C)CC)C(=O)N(C)CC(=O)N(C)[C@H]2C/C=C\CCN(C2=O)[C@@H](CC2CCC(F)(F)CC2)C(=O)N(C)CC(=O)N[C@@H](CCc2cc(F)c(C(F)(F)F)c(F)c2)C(=O)N2C[C@H](OCC)C[C@H]2C(=O)NC2(CCC2)C(=O)N(C)[C@@H](C2CCCC2)C(=O)N(C)[C@H](C(=O)N(C)C)CC(=O)N1C [PP1454, (2S,8S,12R,14S,20S,23S,27S,30S,36S,38Z)-27-allyl-20-cyclopentyl-2-[(4,4-difluorocyclohexyl)methyl]-8-[2-[3,5-difluoro-4-(trifluoromethyl)phenyl]ethyl]-12-ethoxy-N,N,4,19,22,26,32,35-octamethyl-30-[(1S)-1-methylpropyl]-3,6,9,15,18,21,25,28,31,34,42-undecaoxo-spiro[1,4,7,10,16,19,22,26,29,32,35-undecazatricyclo[34.5.1.0^10,14]dotetracont-38-ene-17,1′-cyclobutane]-23-carboxamide] | 15.2 | 0.096 | A (a compound having 10 or more and less than 20 is denoted as A) | A (a compound having 10 or more and less than 20 is denoted as A) |  |
| CCC[C@H]1C(=O)N[C@@H]([C@@H](C)CC)C(=O)N(C)CC(=O)N(C)[C@H]2C/C=C\CCN(C2=O)[C@@H](Cc2ccc(C(F)(F)F)cc2)C(=O)N(C)CC(=O)N[C@@H](CCc2ccc(C(F)(F)F)c(OC)c2)C(=O)N2C[C@H](OCC)C[C@H]2C(=O)NC2(CCC2)C(=O)N(C)[C@@H](C2CCCC2)C(=O)N(C)[C@H](C(=O)N(C)C)CC(=O)N1C [PP1244, (2S,8S,12R,14S,20S,23S,27S,30S,36S,38Z)-20-cyclopentyl-12-ethoxy-8-[2-[3-methoxy-4-(trifluoromethyl)phenyl]ethyl]-N,N,4,19,22,26,32,35-octamethyl-30-[(1S)-1-methylpropyl]-3,6,9,15,18,21,25,28,31,34,42-undecaoxo-27-propyl-2-[[4-(trifluoromethyl)phenyl]methyl]spiro[1,4,7,10,16,19,22,26,29,32,35-undecazatricyclo[34.5.1.0^10,14]dotetracont-38-ene-17,1′-cyclobutane]-23-carboxamide] | 8.9 | 0.061 | A (a compound having 10 or more and less than 20 is denoted as A) | B (a compound having 3 or more and less than 10 is denoted as B) |  |
| CCO[C@@H]1C[C@H]2C(=O)NC3(CCC3)C(=O)N(C)[C@@H](C3CCCC3)C(=O)N(C)[C@H](C(=O)N(C)C)CC(=O)N(C)[C@@H](Cc3cccnc3)C(=O)N[C@@H]([C@@H](C)CC)C(=O)N(C)CC(=O)N(C)[C@H]3CCCCCN(C3=O)[C@@H](Cc3ccc(F)cc3)C(=O)N(C)CC(=O)N[C@@H](CCc3cc(F)c(C(F)(F)F)c(F)c3)C(=O)N2C1 [PP1196] | 50.8 |  |  |  | NRAS/KRAS (ratio of KD value for NRAS to KD value for KRAS) ([2]; SPR): B (a compound having 3 or more and less than 10 is denoted as B); HRAS/KRAS (ratio of KD value for HRAS to KD value for KRAS) ([3]; SPR): B (a compound having 3 or more and less than 10 is denoted as B); Kd [4, 7]: 0.04 nM |
| CCO[C@@H]1C[C@H]2C(=O)NC3(CCC3)C(=O)N(C)[C@@H](C(CC)CC)C(=O)N(C)[C@H](C(=O)N(C)C)CC(=O)N(C)[C@@H](COC)C(=O)N[C@@H]([C@@H](C)CC)C(=O)N(C)CC(=O)N(C)[C@H]3C/C=C\CCN(C3=O)[C@@H](Cc3ccc(C(F)(F)F)cc3)C(=O)N(C)CC(=O)N[C@@H](CCc3ccc(Cl)c(Cl)c3)C(=O)N2C1 [PP1221] | 40.6 | 0.4 | AA (a compound having 20 or more is denoted as AA) | A (a compound having 10 or more and less than 20 is denoted as A) |  |
| CCC[C@H]1C(=O)N[C@@H]([C@@H](C)CC)C(=O)N2CCC[C@H]2C(=O)N(C)[C@H]2C/C=C\CCN(C2=O)[C@@H](Cc2ccc(C(F)(F)F)cc2)C(=O)N(C)CC(=O)N[C@@H](CCc2ccc(C(F)(F)F)c(OC)c2)C(=O)N2C[C@H](OCC)C[C@H]2C(=O)N(C)C2(CCC2)C(=O)N(C)[C@@H](C2CCCC2)C(=O)N(C)[C@H](C(=O)N2CCCC2)CC(=O)N1C [PP3101] |  |  |  |  | IC50 ([1]; read-out: NCI-H441 cell proliferation inhibitory activity, 50% proliferation inhibitory concentration (IC50 value), NCI-H441, four days, CellTiter-Glo): 4.9 nM; NRAS/KRAS (ratio of KD value for NRAS to KD value for KRAS) ([2]; SPR): A (a compound having 10 or more and less than 20 is denoted as A); ratio of the KD value with respect to GDP-bound NRAS wild-type protein to the KD value with respect to KRAS ([2]; SPR, KD(NRAS)/KD(KRAS)): A (a compound having 10 or more and less than 20 is denoted as A); HRAS/KRAS (ratio of KD value for HRAS to KD value for KRAS) ([3]; SPR): A (a compound having 10 or more and less than 20 is denoted as A); ratio of the KD value with respect to GDP-bound HRAS wild-type protein to the KD value with respect to KRAS ([3]; SPR, KD(HRAS)/KD(KRAS)): A (a compound having 10 or more and less than 20 is denoted as A); Kd ([4]; SPR, Single Cycle Kinetics, 1:1 binding model, read-out: KD value with respect to GDP-bound KRAS wild-type protein): 0.27 nM; Kd [4, 7]: 0.27 nM |
